Values of other authors as cited in US12364661B2, “Deformable nano-scale vehicles (DNVS) for trans-blood brain barrier, trans-mucosal, and transdermal drug delivery” (The Regents of the University of California, priority 2015, dated 2025).

Settings: measured experimentally

log P: 0.4
Structure (SMILES): CCCN[C@H]1CCc2nc(N)sc2C1 [Pramipexole, pramipexole]
